Values of other authors, collected in patent publication US20260144769A1, “4-PHENYLBUTYRATE RESTORED GABA UPTAKE AND REDUCED SEIZURES IN SLC6A1 VARIANT-MEDIATED DISORDERS” (Vanderbilt University, priority 2022, published 2026).

Details: SLC6A1 mutation mediated disorders; cited from earlier work

CCCC(CCC)C(=O)O [Valproic acid]
cognition: could not improve cognition | seizure control: control seizures
